Reference: PubChem BioAssay AID330 (DTP/NCI, 2004)
“And” between values parts separate entries of the source, which are not always exact repeats. Equal values may be shown once. Toxic doses and inconclusive results are not listed. The calls were made as follows: active = survival T/C of 150% or more; inactive = T/C below 125% in these data.

Tested on: P388 leukemia ip, CD2F1 mice, survival T/C
Test: NCI In Vivo Anticancer Drug Screen. Data for tumor model P388 Leukemia (intraperitoneal) in CD2F1 (CDF1) mice
Conditions: endpoint: median survival time, higher = longer survival
Outline: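 Mice carrying the transplanted tumor received test compound or vehicle. Survival was recorded in each group, and the value is the treated-group measurement divided by that of the vehicle-treated control group.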

[1] = dose: 50.0 mg/kg/injection, schedule: Q01DX005 (ip), vehicle: Klucel (hydroxypropylcellulose) (HPC)
[2] = dose: 100.0 mg/kg/injection, schedule: Q01DX005 (ip), vehicle: Klucel (hydroxypropylcellulose) (HPC)
[3] = dose: 200.0 mg/kg/injection, schedule: Q01DX005 (ip), vehicle: Klucel (hydroxypropylcellulose) (HPC)
[4] = dose: 50.0 mg/kg/injection, schedule: Q01DX005 (ip), vehicle: saline with Tween-80
[5] = dose: 100.0 mg/kg/injection, schedule: Q01DX005 (ip), vehicle: saline with Tween-80
[6] = dose: 200.0 mg/kg/injection, schedule: Q01DX005 (ip), vehicle: saline with Tween-80
[7] = dose: 60.0 mg/kg/injection, schedule: Q01DX005 (ip), vehicle: saline with Tween-80
[8] = dose: 120.0 mg/kg/injection, schedule: Q01DX005 (ip), vehicle: saline with Tween-80
[9] = dose: 240.0 mg/kg/injection, schedule: Q01DX005 (ip), vehicle: saline with Tween-80

Measured: T/C

NC(=O)c1ncn(C2OC(CO)C(O)C2O)n1 (centres undefined)
inactive: dose: 10.0 mg/kg/injection, schedule: Q01DX009 (ip), vehicle: saline 99 % of control and 101 % of control | dose: 20.0 mg/kg/injection, schedule: Q01DX009 (ip), vehicle: saline 104 % of control | dose: 40.0 mg/kg/injection, schedule: Q01DX009 (ip), vehicle: saline 105 % of control and 106 % of control and 109 % of control | dose: 80.0 mg/kg/injection, schedule: Q01DX009 (ip), vehicle: saline 108 % of control and 112 % of control and 118 % of control | dose: 160.0 mg/kg/injection, schedule: Q01DX009 (ip), vehicle: saline 122 % of control | dose: 320.0 mg/kg/injection, schedule: Q01DX009 (ip), vehicle: saline 87 % of control

Nc1ccc(OCCNS(=O)(=O)c2cccc(S(=O)(=O)F)c2)c(Cl)c1
inactive: dose: 37.5 mg/kg/injection, schedule: Q01DX001 (ip), vehicle: saline with Tween-80 95 % of control | dose: 75.0 mg/kg/injection, schedule: Q01DX001 (ip), vehicle: saline with Tween-80 95 % of control | dose: 150.0 mg/kg/injection, schedule: Q01DX001 (ip), vehicle: saline with Tween-80 90 % of control

CC1(C)C2CCC([CH2][Hg][Cl])C1C2 (centres undefined)
inactive: dose: 2.44 mg/kg/injection, schedule: Q01DX009 (ip), vehicle: saline with Tween-80 100 % of control | dose: 3.66 mg/kg/injection, schedule: Q01DX009 (ip), vehicle: saline with Tween-80 100 % of control | dose: 5.55 mg/kg/injection, schedule: Q01DX009 (ip), vehicle: other 113 % of control | dose: 5.55 mg/kg/injection, schedule: Q01DX009 (ip), vehicle: saline with Tween-80 100 % of control and 91 % of control | dose: 6.25 mg/kg/injection, schedule: Q04DX003 (ip), vehicle: other 105 % of control | dose: 8.33 mg/kg/injection, schedule: Q01DX009 (ip), vehicle: saline with Tween-80 108 % of control and 95 % of control | dose: 12.5 mg/kg/injection, schedule: Q01DX009 (ip), vehicle: other 86 % of control | dose: 12.5 mg/kg/injection, schedule: Q04DX003 (ip), vehicle: other 100 % of control | dose: 25.0 mg/kg/injection, schedule: Q04DX003 (ip), vehicle: other 100 % of control

COC(=O)[C@@]12C(=O)N[C@@H](Cc3ccccc3)[C@@H]1[C@H](C)C(C)=C[C@@H]2CO
inactive: dose: 60.0 mg/kg/injection, schedule: Q01DX005 (ip), vehicle: saline 98 % of control | dose: 120.0 mg/kg/injection, schedule: Q01DX005 (ip), vehicle: saline 95 % of control | dose: 240.0 mg/kg/injection, schedule: Q01DX005 (ip), vehicle: saline 98 % of control

CC(CC(=O)O)C(N)C(=O)O (centres undefined)
inactive: dose: 50.0 mg/kg/injection, schedule: Q01DX005 (ip), vehicle: saline 96 % of control | dose: 50.0 mg/kg/injection, schedule: Q01DX009 (ip), vehicle: saline 92 % of control | dose: 100.0 mg/kg/injection, schedule: Q01DX005 (ip), vehicle: saline 95 % of control | dose: 100.0 mg/kg/injection, schedule: Q01DX009 (ip), vehicle: saline 91 % of control | dose: 200.0 mg/kg/injection, schedule: Q01DX005 (ip), vehicle: saline 101 % of control | dose: 200.0 mg/kg/injection, schedule: Q01DX009 (ip), vehicle: saline 92 % of control

CCOC(=O)CCN(CCC(=O)OCC)c1ccccn1
inactive: [1] 105 % of control | [2] 99 % of control | [3] 101 % of control

O=C(Nc1ccc(Cc2ccc(NC(=O)C(c3ccccc3)c3ccccc3)cc2)cc1)C(c1ccccc1)c1ccccc1
inactive: [4] 86 % of control | [5] 95 % of control | [6] 92 % of control

[O-][n+]1cscc1-c1nc2ccccc2[nH]1
inactive: [1] 100 % of control | [2] 98 % of control | [3] 102 % of control

CC(NC(=O)C(NC(=O)c1ccc[n+](Cc2ccccc2)c1)C(C)C)C(N)=O (centres undefined)
inactive: dose: 7.5 mg/kg/injection, schedule: Q01DX005 (ip), vehicle: saline 109 % of control | dose: 15.0 mg/kg/injection, schedule: Q01DX005 (ip), vehicle: saline 104 % of control | dose: 30.0 mg/kg/injection, schedule: Q01DX005 (ip), vehicle: saline 98 % of control

CC(C)c1cccc(C(C)C)c1N1C(=O)C(=O)C(c2nc3ccccc3s2)C(=O)C1=O
inactive: [7] 103 % of control | [8] 102 % of control | [9] 103 % of control

CCOC(CSCC#N)OCC
inactive: dose: 12.5 mg/kg/injection, schedule: Q01DX009 (ip), vehicle: saline sonified 100 % of control | dose: 25.0 mg/kg/injection, schedule: Q01DX009 (ip), vehicle: saline sonified 95 % of control | dose: 50.0 mg/kg/injection, schedule: Q01DX009 (ip), vehicle: saline sonified 100 % of control

CC(=O)OC1CCC2(C)C(=O)CCC3C=C(C(=O)C3CSc3ccc(Br)cc3)C(O)CC2C1(C)C (centres undefined)
inactive: dose: 11.25 mg/kg/injection, schedule: Q01DX009 (ip), vehicle: Klucel (hydroxypropylcellulose) (HPC) 95 % of control | dose: 22.5 mg/kg/injection, schedule: Q01DX009 (ip), vehicle: Klucel (hydroxypropylcellulose) (HPC) 100 % of control | dose: 45.0 mg/kg/injection, schedule: Q01DX009 (ip), vehicle: Klucel (hydroxypropylcellulose) (HPC) 94 % of control | dose: 90.0 mg/kg/injection, schedule: Q01DX009 (ip), vehicle: Klucel (hydroxypropylcellulose) (HPC) 100 % of control

CCCCCNC(=O)C(O)C(O)C(=O)NCCCCC (centres undefined)
inactive: [4] 104 % of control | [5] 101 % of control | [6] 90 % of control

N#CC1CC2(CCC1=O)c1ccccc1-c1ccccc12 (centres undefined)
inactive: dose: 25.0 mg/kg/injection, schedule: Q04DX002 (ip), vehicle: saline with Tween-80 92 % of control | dose: 50.0 mg/kg/injection, schedule: Q04DX002 (ip), vehicle: saline with Tween-80 98 % of control

COC(=O)C1=C(OC)C(C(=O)c2ccccc2)NC1=O (centres undefined)
inactive: [7] 111 % of control | [8] 100 % of control | [9] 99 % of control

COc1cccc(C(=O)Nc2ccccc2-c2ccccc2)c1OC
inactive: [4] 97 % of control | [5] 95 % of control | [6] 87 % of control

CS(=O)(=O)OCCF
inactive: dose: 0.78 mg/kg/injection, schedule: Q01DX009 (ip), vehicle: saline with Tween-80 97 % of control | dose: 1.56 mg/kg/injection, schedule: Q01DX009 (ip), vehicle: saline with Tween-80 100 % of control | dose: 3.12 mg/kg/injection, schedule: Q01DX009 (ip), vehicle: saline with Tween-80 103 % of control | dose: 3.96 mg/kg/injection, schedule: Q04DX003 (ip), vehicle: saline 109 % of control | dose: 6.0 mg/kg/injection, schedule: Q04DX003 (ip), vehicle: saline 104 % of control | dose: 6.25 mg/kg/injection, schedule: Q01DX009 (ip), vehicle: saline with Tween-80 105 % of control and 111 % of control | dose: 9.0 mg/kg/injection, schedule: Q04DX003 (ip), vehicle: saline 118 % of control | dose: 12.5 mg/kg/injection, schedule: Q01DX009 (ip), vehicle: saline with Tween-80 89 % of control

CCC(C(=O)O)C1(C(=O)O)CCCCCC1 (centres undefined)
inactive: dose: 100.0 mg/kg/injection, schedule: Q01DX001 (ip), vehicle: saline with Tween-80 101 % of control | dose: 100.0 mg/kg/injection, schedule: Q04DX002 (ip), vehicle: saline with Tween-80 98 % of control | dose: 200.0 mg/kg/injection, schedule: Q01DX001 (ip), vehicle: saline with Tween-80 106 % of control | dose: 200.0 mg/kg/injection, schedule: Q04DX002 (ip), vehicle: saline with Tween-80 98 % of control | dose: 400.0 mg/kg/injection, schedule: Q01DX001 (ip), vehicle: saline with Tween-80 108 % of control | dose: 400.0 mg/kg/injection, schedule: Q04DX002 (ip), vehicle: saline with Tween-80 109 % of control
